Values joined by “and” are separate entries in the source; they are usually repeats but may differ in a detail not shown here. Identical values can stand only once.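 Compound exposure: 48 hours, 5 concentrations, 96-well plates. The concentration for 50% growth inhibition is given as GI50. TGI: concentration producing complete growth inhibition.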
What was measured:
Experiment in all cases: growth of human tumour cells (NCI), 48 h
[1] = system: SF-295 CNS
[2] = system: HOP-62 NSCLC
[3] = system: HOP-92 NSCLC
[4] = system: NCI-H460 lung
[5] = system: RXF 393 renal
[6] = system: SNB-75 CNS
[7] = system: SR leukemia
[8] = system: UACC-62 melanoma
[9] = system: MDA-N
[10] = system: SNB-19 CNS

SMILES	TGI [1]	TGI [2]	TGI [3]	TGI [4]	TGI [5]	TGI [6]	TGI [7]	TGI [8]	TGI [9]	TGI [10]	GI50 [1] [µM]	GI50 [2] [µM]	GI50 [3] [µM]	GI50 [4] [µM]	GI50 [5] [µM]	GI50 [6] [µM]	GI50 [7] [µM]	GI50 [8] [µM]	GI50 [9] [µM]	GI50 [10] [µM]
Nc1nn2c(=O)c3ccccc3nc2s1	> 100 µM	> 100 µM	> 100 µM	> 100 µM	> 100 µM	> 100 µM	44.7 µM	> 100 µM	> 100 µM	> 100 µM	–	–	–	–	–	–	–	–	–	–
Cc1cnc2c(c1)C(=O)C1=C(C2=O)C2OC(=O)CC2OC1(C)C (configuration not stated)	2.68 µM	2.58 µM	0.384 µM	2.28 µM	0.507 µM	4.1 µM	0.29 µM	0.351 µM	0.865 µM	2.61 µM	–	–	–	–	–	–	–	–	–	–
CCOC(=O)/C=C(\C(=O)OCC)n1ccc(=O)n(Cc2cn(COCCOC(C)=O)nn2)c1=O	> 100 µM	> 100 µM	35.3 µM	> 52.5 µM	38.4 µM	> 69.4 µM	52.9 µM	38.6 µM	> 100 µM	> 89.5 µM	–	–	–	–	–	–	–	–	–	–
COC(=O)/C(C#N)=C(/NCCN)Nc1ccccc1	> 100 µM	> 100 µM	> 100 µM	> 100 µM	> 100 µM	> 100 µM	> 100 µM	–	> 100 µM	> 100 µM	–	–	–	–	–	–	–	–	–	–
O=C(c1ccncc1)C1C(=O)c2ccccc2C1C1(O)c2ccccc2CC1C(O)c1ccncc1 (configuration not stated)	> 100 µM	> 100 µM	> 100 µM	> 100 µM	> 100 µM	> 100 µM	> 100 µM	48.7 µM	38.9 µM	> 100 µM	–	–	–	–	–	–	–	–	–	–
COc1cc(/C=C/C=C2\CC/C(=C\C=C\c3ccc(O)c(OC)c3)C2=O)ccc1O	> 100 µM	> 100 µM	> 100 µM	> 100 µM	77.7 µM	> 100 µM	17.9 µM	> 100 µM	> 100 µM	> 100 µM	–	–	–	–	–	–	–	–	–	–
CC(=O)c1ccc2c(c1)CC1(C2)Cc2ccccc2C1=O (configuration not stated)	> 100 µM	> 100 µM	95.9 µM	> 100 µM	> 100 µM	> 100 µM	> 100 µM	> 100 µM	> 100 µM	> 100 µM	–	–	–	–	–	–	–	–	–	–
COc1cc2c(cc1Cc1c(F)cccc1Cl)nc(-c1c(F)cccc1Cl)n2Cc1c(F)cccc1Cl	41.3 µM	75.7 µM	37.6 µM	> 100 µM	> 100 µM	70.4 µM	> 100 µM	> 100 µM	> 100 µM	> 100 µM	–	–	–	–	–	–	–	–	–	–
CC(C)OC(=O)OCSc1ccccc1N=Cc1cccc([N+](=O)[O-])c1	> 10 µM	> 10 µM	> 10 µM	> 10 µM	> 10 µM	> 10 µM	> 10 µM	> 10 µM	> 10 µM	> 10 µM	–	–	–	–	–	–	–	–	–	–
[O-]/[N+](=C\c1ccccc1OC(=S)S)c1ccc(Cl)cc1	> 100 µM	> 100 µM	18.1 µM	> 100 µM	> 100 µM	> 100 µM	> 100 µM	> 100 µM	> 100 µM	> 100 µM	–	–	–	–	–	–	–	–	–	–
C[n+]1c(-c2ccc(/C=C/C=N\NC(=O)c3ccc(C(=O)N/N=C\C=C\c4ccc(-c5cn6ccccc6[n+]5C)cc4)cc3)cc2)cn2ccccc21	> 100 µM	> 100 µM	> 100 µM	> 100 µM	> 100 µM	> 100 µM	42.3 µM	> 100 µM	> 100 µM	> 100 µM	–	–	–	–	–	–	–	–	–	–
C=C(CN(C)C)C(=O)c1ccccc1[N+](=O)[O-]	50.7 µM and 32.9 µM	> 100 µM and 36.6 µM	18.5 µM and 5.11 µM	59.3 µM and 45.1 µM	30.2 µM and 4.32 µM	66.3 µM and 44.4 µM	> 33.3 µM and 5.74 µM	32.9 µM and 31.1 µM	27.9 µM and 25.3 µM	> 68.2 µM and 47.7 µM	17.7	17.7	2.11	19.6	1.99	15.8	1.65	13.1	10.6	23.3
COc1ccc(NC(=S)NC(=O)c2ccc3c(c2)Sc2ccccc2O3)c([N+](=O)[O-])c1	> 100 µM	> 100 µM	44.9 µM	> 100 µM	75.6 µM	23.7 µM	> 100 µM	> 100 µM	> 100 µM	83.6 µM	–	–	–	–	–	–	–	–	–	–
CC(=O)c1cnc2oc3ccc(O)cc3c2c1-c1ccccc1	> 100 µM	–	> 100 µM	> 100 µM	> 100 µM	22 µM	> 100 µM	70.4 µM	> 100 µM	> 100 µM	–	–	–	–	–	2.57	–	–	–	–
C[C@H]1SC(c2ccc(Cl)cc2Cl)N(NC(=O)c2ccncc2)C1=O (some centres not stated)	> 100 µM	94.3 µM	> 100 µM	> 100 µM	61.2 µM	> 100 µM	> 100 µM	> 100 µM	57.5 µM	> 100 µM	–	–	–	–	–	–	–	–	–	–
COC(=O)c1cc(C#N)[nH]c1-c1cc(Br)cs1	24.7 µM	29.9 µM	19.1 µM	54.5 µM	23 µM	22.6 µM	> 66.3 µM	38.4 µM	29.4 µM	37.3 µM	–	–	–	–	–	–	–	–	–	–
CC(C)(C)c1cc(C(=O)/C=C/c2ccc3c(c2)OCO3)cc(C(C)(C)C)c1O	> 31.2 µM	> 100 µM	> 100 µM	15.7 µM	7.58 µM	15.4 µM	10 µM	> 45.5 µM	5.53 µM	> 70.2 µM	–	–	–	–	–	–	–	–	–	–

SMILES	TGI [1]	TGI [2]	TGI [3]	TGI [4]	TGI [5]	TGI [6]	TGI [7]	TGI [8]	TGI [9]	TGI [10]	GI50 [1] [µM]	GI50 [2] [µM]	GI50 [3] [µM]	GI50 [4] [µM]	GI50 [5] [µM]	GI50 [6] [µM]	GI50 [7] [µM]	GI50 [8] [µM]	GI50 [9] [µM]	GI50 [10] [µM]
CCOC(=O)c1cn2c(n1)sc1cc(Cl)cc(Cl)c12	> 100 µM	> 100 µM	> 100 µM	> 100 µM	> 100 µM	> 100 µM	> 100 µM	> 100 µM	> 100 µM	> 100 µM	–	–	–	–	–	–	–	–	–	–
CC(=O)O[C@H]1CCc2c(cc(N)c3c2C(=O)C[C@]2(C)C([C@H](C)CCCC(C)C)CCC32C)C1(C)C (some centres not stated)	> 100 µM	> 100 µM	> 100 µM	> 100 µM	> 100 µM	> 100 µM	> 100 µM	> 100 µM	> 100 µM	> 100 µM	–	–	–	–	–	–	–	–	–	–
C=C1c2nc3ccccc3n2C=C(c2ccc(Cl)cc2)N1c1ccc(OC)cc1	18.5 µM	–	43.6 µM	18.7 µM	21.6 µM	7.13 µM	> 100 µM	> 100 µM	45.7 µM	12.7 µM	–	–	–	–	–	–	–	–	–	–
CN(C)CC1CCC(CN(C)C)C1=O (configuration not stated)	32.8 µM	> 68 µM	4.07 µM	45.6 µM	9.68 µM	37.2 µM	> 100 µM	27.2 µM	3.85 µM	> 100 µM	–	–	1.93	–	–	–	–	–	–	–
Oc1[nH]c2ccccc2c1N=NC(=S)Nc1ccc(Cl)cc1	> 100 µM	> 100 µM	> 100 µM	> 100 µM	> 100 µM	> 100 µM	> 100 µM	> 100 µM	> 100 µM	> 100 µM	–	–	–	–	–	–	–	–	–	–
S=c1cc(-c2ccc3c(c2)OCO3)s[nH]1	> 100 µM	> 100 µM	> 100 µM	> 100 µM	> 100 µM	> 100 µM	> 100 µM	> 100 µM	> 100 µM	> 100 µM	–	–	–	–	–	–	–	–	–	–
Cc1ccc(/C=C2\Cc3c(C)cc(C)cc3C2=O)c(C(=O)O)c1	> 100 µM	> 100 µM	> 100 µM	> 100 µM	88.6 µM	> 100 µM	68.7 µM	> 100 µM	> 100 µM	> 100 µM	–	–	–	–	–	–	–	–	–	–
O=c1[nH]nc(Cc2ccccc2)n1/N=C/c1ccncc1	> 100 µM	> 100 µM	> 100 µM	> 100 µM	> 100 µM	> 100 µM	> 100 µM	–	> 100 µM	> 100 µM	–	–	–	–	–	–	–	–	–	–
N#Cc1c(-c2ccccc2)cc(-c2ccc(Cl)cc2)[nH]c1=S	83.7 µM	> 100 µM	> 100 µM	> 100 µM	> 100 µM	> 100 µM	> 100 µM	92.1 µM	> 100 µM	> 100 µM	–	–	–	–	–	–	–	–	–	–
COc1cc2c(cc1OC)-c1cc3ccccc3c(=O)n1CC2	62.1 µM	37.1 µM	63 µM	67.5 µM	21.6 µM	92 µM	96.8 µM	39 µM	> 100 µM	> 100 µM	–	–	–	–	–	–	–	–	–	–
COCCOCCOC1=CC(=O)c2c(O)ccc(O)c2C1=O	3.23 µM	3.44 µM	3.71 µM	3.47 µM	3.68 µM	3.28 µM	5.03 µM	3.34 µM	0.289 µM	3.28 µM	–	–	–	–	–	–	–	–	–	–
N#Cc1nc(C2CCC2)oc1N	> 100 µM	> 100 µM	> 100 µM	> 100 µM	> 100 µM	> 100 µM	> 100 µM	> 100 µM	> 100 µM	> 100 µM	–	–	–	–	–	–	–	–	–	–
O=c1[nH]c(Nc2cccc(CO)c2)nc2nc[nH]c12	> 100 µM	> 100 µM	> 100 µM	–	> 100 µM	> 100 µM	> 100 µM	> 100 µM	> 100 µM	> 100 µM	–	–	–	–	–	–	–	–	–	–
O=C1CSC2=NC3=C(COC/C3=C\c3ccc(Br)cc3)C(c3ccc(Br)cc3)N12 (configuration not stated)	> 100 µM	> 100 µM	> 100 µM	> 100 µM	> 100 µM	> 100 µM	60.9 µM	> 100 µM	> 100 µM	> 100 µM	–	–	–	–	–	–	–	–	–	–
COc1cc2ccc1OCc1cccc(n1)COc1ccc(cc1OC)C=Nc1ccc(cc1)N=C2	> 100 µM	> 100 µM	> 100 µM	> 100 µM	> 100 µM	> 100 µM	> 100 µM	> 100 µM	> 100 µM	> 100 µM	–	–	–	–	–	–	–	–	–	–
CO[C@@H]1O[C@H](C(=O)c2ccccc2)[C@H]2OC(C)(C)O[C@@H]12	> 100 µM	> 100 µM	> 100 µM	> 100 µM	> 100 µM	> 100 µM	> 100 µM	> 100 µM	> 100 µM	> 100 µM	–	–	–	–	–	–	–	–	–	–

— PubChem BioAssay (NCI)
